Test results published in PMC12667295, “A surrogate barrier model for high-throughput blood-brain barrier permeability prediction: integrating LLC-PK1-MOCK/MDR1 Cells and lysosomal trapping correction” (Drug Delivery, 2025).
Like-named read-outs stand apart in the source and are kept apart here.

Key:
[1] = cited from earlier work
P-gp (human MDR1) [2] = experiment: Bidirectional transport across LLC-PK1-MDR1 monolayer stably expressing human MDR1 (P-gp) (Transwell); settings: pig;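 also: 2 h incubation at 37 °C, receiver HBSS with 10 mM Hepes plus 1% BSA, LC-MS/MS of donor and receiver, recovery as receiver plus donor amount over initial donor amount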
Protocol: (§3) The overexpression and functional activity of P-glycoprotein (P-gp) in the LLC-PK1-MDR1 cells were rigorously validated through multiple methods.
(§4) Cells were passaged at 80−90% confluence (every 2−3 days) using trypsin-EDTA solution. […] The culture medium was replaced every other day, including 200 µL culture medium in the apical and 850 µL cell culture medium in the basolateral side. LLC-PK1 MOCK cells were used at passages of 3−30. LLC-PK1-MDR1 cells were cultured and passaged in the same manner as LLC-PK1 cells except at the density of 1 × 10^4 cells per well. LLC-PK1-MDR1 cells were used at passages of 3−25. For LLC-PK1 MOCK cells and LLC-PK1-MDR1 cells, the experiments were performed on the 4th and 7th day after seeding.
(§5) Monitoring permeability of positive control drugs. […] Samples were collected from the donor well at the start of the incubation (50 µL) as C0, and from the donor and receiver wells at the end of the incubation (50 µL). All samples were stored at - 40 °C for LC-MS/MS analysis.
(§6) Bidirectional transport experiments. […] The transwell experiments were conducted following above-mentioned procedure. […] When the recovery rate of the tested drug is below 80%, the possibility of intracellular accumulation should be considered. The polycarbonate (PC) membrane where cells are grown should be carefully peeled off from the cell culture medium and placed in 100 µL of HBSS buffer solution. […] The process was carried out on ice to prevent heat-induced degradation, applying a power in the range of 300 W for a total duration of 20 minutes. Thereafter, a quantitative analysis of the intracellular drug was conducted, and the drug recovery rate was recalculated based on this analysis.
(§7) The apparent permeability coefficient (Papp, cm/s) was calculated for each transport direction, A-B and B-A, using the following equation: Papp=dQ/dt×1/A×C0 where dQ/dt is the permeation rate (µmol/s), A is the surface area of the insert (0.33 cm^2, Corning), and C0 is the initial donor concentration (µM).
(§8) The efflux ratio (ER) is calculated as the ratio of Papp (B-A)/Papp (A-B). Recovery=TRcumrf+Cdf×VD/Cdi×VD×100% Where TRcumrf is the cumulative transported mass in the receiver chamber at the end of the incubation (nmol), Cdf is the concentration of the drug in the donor chamber at the end of the incubation (μM), VD is the volume of the donor chamber (mL), and Cdi is the initial concentration of the drug in the donor chamber (μM).
(§9) The method of the bidirectional transport experiment was the same as before.

[3] = cited from earlier work; remark: listed apart in the source
P-gp (human MDR1) [4] = experiment: in vitro; settings: pig
Protocol: as §3, §4, §5, §6, §7, §8, §9

[5] = Brain distribution in rats (Kp,brain, Kp,uu,brain); settings: rat
Source text: In vivo unbound brain distribution data (Kp,uu,Brain) for 16 drugs and total brain distribution data (Kp,Brain) for 16 drugs was acquired from literature. […] For each tested compound, fifteen rats were randomly divided into five groups of three rats each. […] The time of execution of the rats by CO2 inhalation after administration was optimized according to the in vivo elimination rate to achieve five concentrations of different time points. After the rats were euthanized, cardiac puncture was performed immediately to remove as much whole blood as possible (~7 ml) from the systemic circulation (Quantitatively aliquot 0.2 ml of whole blood for the determination of drug concentration in plasma). Afterwards, the brain tissue was collected immediately and rinsed repeatedly with ice-cold saline 3 times. Then, the surface saline was blotted dry with clean filter paper to remove as much residual drug in the blood vessels as possible. Plasma samples were prepared by centrifugation of the blood samples at 2,500 g for 10 minutes at 4 °C. All brain samples were homogenized by adding 4-fold volume water. All samples were stored at -40 °C before LC-MS/MS analysis. […] The brain tissue partition coefficient (Kp, brain) and brain-to-plasma unbound drug partition ratio (Kp,uu, brain) are calculated according to the following formulas, respectively: Kp,brain=AUC(0−∞,brain)/AUC(0−∞,plasma)Kp,uu,brain=Kp,brain×(fu,tissue/fu,plasma)
Free brain-to-plasma distribution coefficients (Kp,uu,brain) of 41 drugs. Brain distribution coefficients (Kp,uu,brain) were calculated for 41 drugs. […] Plasma and brain concentration-time profiles were generated, and AUC(0-t) values for both matrices were calculated using WinNolin 8.1. Kp,brain was derived as the ratio of brain-to-plasma AUC(0-t).
Kp,uu,brain values were computed by normalizing Kp,brain to unbound fractions (fu,plasma and fu,brain).

[6] = Protein binding in rat brain homogenate (equilibrium dialysis)
Protocol: (§1) Stocks (10 mM) of test compounds were diluted to 5 μM with plasma or tissue homogenate and dialyzed at 37 °C for 6 hours in a shaking incubator. After incubation aliquots of both plasma or tissue homogenate and buffer from the device were taken and added to equal volumes of blank buffer and plasma or tissue homogenate respectively. Samples were then diluted in acetonitrile containing an internal standard prior to centrifugation and analysis of the supernatants by LC-MS/MS. The fu, plasma was calculated using Equation 1:(1) fu,plasma=Concbuffer chamber/Concsample chamber
Rat fraction unbound in brain (fu, brain) was determined as the ratio of concentration in buffer to that in brain.
(§2) Unbound fractions of test drugs in plasma (fu,plasma) and brain tissue (fu,brain). For compounds with existing rat plasma or brain protein-binding data from literature or internal studies, values were directly adopted.

in vitro [7] = settings: pig; for recovery at 2 h, 2 µM: pH 7.4; for Papp B→A at 2 h, 2 µM: LLC-PK1, pH 7.4
Protocol: as §4
(§10) Samples were collected from the donor well at the start of the incubation (50 µL) as C0, and from the donor and receiver wells at the end of the incubation (50 µL). All samples were stored at - 40 °C for LC-MS/MS analysis.
as §6, §7, §8, §9

[8] = Bidirectional transport across LLC-PK1 MOCK monolayer (Transwell); settings: pig;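 also: compound quantified by LC-MS/MS in donor and receiver wells, efflux ratio as B-A over A-B Papp, recovery relative to initial donor amount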
Protocol: as §4, §10, §6, §7, §8, §9

in vitro [9] = settings: rat, plasma
Protocol: as §1, §2

[10] = LLC-PK1, pH 7.4, Papp A-B, LLC-PK1 MOCK, 2 µM, 2 h, mean ± s, n = 3, BLQ = below 2 nM
[11] = LLC-PK1 MOCK cell monolayer (Transwell)

Row | Compound | Kp, Brain ([1]; ref Fridén [2009]) | Kp,uu,Brian ([1]; ref Fridén [2009]) | Papp A→B at 2 h, 2 µM (P-gp (human MDR1) [2]; LLC-PK1, pH 7.4) [×10⁻⁶ cm/s] | Papp B→A at 2 h, 2 µM (P-gp (human MDR1) [2]; LLC-PK1, pH 7.4) [×10⁻⁶ cm/s] | efflux ratio at 2 h, 2 µM (P-gp (human MDR1) [2]; LLC-PK1, pH 7.4) | recovery at 2 h, 2 µM (P-gp (human MDR1) [4]; LLC-PK1, pH 7.4) [%] | recovery at 2 h, 2 µM (in vitro [7]) [%] | Papp A→B at 2 h, 2 µM ([8]; LLC-PK1, pH 7.4) [×10⁻⁶ cm/s] | Papp B→A at 2 h, 2 µM ([8]; LLC-PK1, pH 7.4) [×10⁻⁶ cm/s] | efflux ratio at 2 h, 2 µM ([8]; LLC-PK1, pH 7.4) | fraction unbound at 6 h, 5 µM (in vitro [9]) | fraction unbound at 6 h, 5 µM ([6]; rat, brain homogenate) | Papp A→B at 2 h, 2 µM [8, 10] [×10⁻⁶ cm/s] | recovery at 2 h, 2 µM (in vitro [7]; [11]) [%] | further results
1 | Nc1nnc(-c2cccc(Cl)c2Cl)c(N)n1 [Lamotrigine] | 2.02 | 0.880 | – | – | – | – | – | – | – | – | – | – | – | – | –
2 | Cc1ncc2n1-c1ccc(Cl)cc1C(c1ccccc1F)=NC2 [Midazolam] | – | – | 29.5 ± 1 | 27 ± 2.23 | 0.91 | 100 ± 3 | 99.6 ± 1.73 | 24.7 ± 0.41 | 31.6 ± 5.1 | 1.32 | – | – | – | – | Kp, Brain ([1]; footnote a, ref Internal data): 2.44^a; Protein binding in plasma ([3]; footnote a, ref Internal data): 97.0^a %; Kp uu ([5]; in vivo): 1.42; fraction unbound at 6 h, 5 µM [6]: 0.022
3 | NC(=O)C[S+]([O-])C(c1ccccc1)c1ccccc1 (stereo not shown) [Modafinil] | – | – | 22.7 ± 0.45 | 23.9 ± 0.91 | 1.05 | 107 ± 3.4 | 106 ± 2.03 | 20.2 ± 0.98 | 15.6 ± 0.22 | 0.78 | – | – | – | – | Protein binding in plasma ([3]; footnote b, species not stated, ref https://go.drugbank.com): 60^b %; Kp ([5]; SD, in vivo, iv, 1 mg/kg): 0.71; Kp uu ([5]; SD, in vivo, iv, 1 mg/kg): 0.547; fraction unbound at 6 h, 5 µM [6]: 0.308
4 | COc1ccc2[nH]c([S+]([O-])Cc3ncc(C)c(OC)c3C)nc2c1 (stereo not shown) [Omeprazole] | – | – | – | 41.5 ± 2.92 | – | 113 ± 1.46 | – | – | 28.9 ± 1.39 | – | 0.045 | 0.321 | 34.2 ± 0.55 | – | Papp A→B at 2 h, 2 µM (P-gp (human MDR1) [2]; LLC-PK1, pH 7.4, Papp A-B, LLC-PK1-MDR1, 2 µM, 2 h, mean ± s, n = 3): 25.4 ± 0.66 ×10⁻⁶ cm/s; Kp, Brain ([1]; ref Cheng et al. [2002]): 0.15; Kp uu [5]: 1.09
5 | CCOc1ccc(NC(C)=O)cc1 [Phenacetin] | – | – | 36.6 ± 2.48 | 29 ± 1.19 | – | – | – | – | – | – | 0.416 | 0.419 | 35.2 ± 0.08 | – | Kp uu ([5]; SD, iv, 1 mg/kg): 0.768; Kp ([5]; SD, iv, 1 mg/kg, Kp, Brain): 0.763; Papp B→A at 2 h, 2 µM (in vitro [7]): 27.2 ± 1.32 ×10⁻⁶ cm/s
6 | CC(C)NCC(O)COc1cccc2ccccc12 (stereo not shown) [Propranolol] | 16.37 | 0.61 | 16.8 ± 0.09 | 16.1 ± 1.46 | 0.96 | 80.7 ± 1.03 | – | – | 20.1 ± 0.71 | 0.88 | – | – | 22.8 ± 2.13 | 90.9 ± 7.14 | –
7 | C=C[C@H]1C[N@@]2CC[C@H]1C[C@@H]2[C@@H](O)c1ccnc2ccc(OC)cc12 [Quinidine] | – | – | 2.48 ± 1.06 | 42.9 ± 2.11 | – | 98.7 ± 14.8 | – | – | 17.2 ± 2.85 | – | – | – | 23.4 ± 0.37 | 99.1 ± 15.6 | Kp, Brain ([1]; ref Nicolaï [2020]): 0.32; Kp,uu,Brian ([1]; ref Nicolaï [2020]): 0.036
8 | Nc1c2c(nc3ccccc13)CCCC2 [Tacrine] | – | – | – | – | – | 105 ± 4.23 | 114 ± 3.02 | – | – | – | – | – | – | – | Kp, Brain ([1]; rat, in vivo): 9.56; Kp,uu,Brian ([1]; rat, in vivo): 0.78; Papp B→A at 2 h, 2 µM (P-gp (human MDR1) [4]; LLC-PK1, pH 7.4): 34.1 ± 2.16 ×10⁻⁶ cm/s; Papp A→B at 2 h, 2 µM (P-gp (human MDR1) [4]; LLC-PK1, pH 7.4, Papp A-B): 23.6 ± 1.1 ×10⁻⁶ cm/s; Papp B→A at 2 h, 2 µM (in vitro [7]): 27.2 ± 2.27 ×10⁻⁶ cm/s; Papp A→B at 2 h, 2 µM (in vitro [7]; LLC-PK1, pH 7.4, Papp A-B): 30.9 ± 1.76 ×10⁻⁶ cm/s
9 | COc1cccc(C2(O)CCCCC2CN(C)C)c1 (stereo not shown) [Tramadol] | 5.29 | 1.46 | 26.3 ± 1.05 | 25.2 ± 1.1 | 0.96 | 109 ± 2.73 | 113 ± 3.59 | 27.3 ± 0.2 | 23.3 ± 1.43 | 0.85 | – | – | – | – | –
10 | CC[C@]1(O)C[C@@H]2CN(CCc3c([nH]c4ccccc34)[C@@](C(=O)OC)(c3cc4c(cc3OC)N(C)[C@H]3[C@@](O)(C(=O)OC)[C@H](OC(C)=O)[C@]5(CC)C=CCN6CC[C@]43[C@@H]65)C2)C1 [Vinblastine] | – | – | 2.84 ± 0.27 | 20.4 ± 1.81 | 7.2 | 103 ± 9.03 | – | – | 4.16 ± 0.32 | 0.96 | 0.06 | < 0.01 | 4.33 ± 0.21 | 86.5 ± 1.69 | Kp uu ([5]; SD, iv, 1 mg/kg): < 0.088; Kp ([5]; SD, iv, 1 mg/kg, Kp, Brain): 0.528
